Experimental data published in the supplement of paper PMC13380429.

How the values were obtained:
Settings in all cases: 72 h
Caco-2 [1] = assay: cell viability relative to DMSO; higher = less toxic
Calu-3 [2] = assay: as above
HepG2 [3] = assay: as above
U2OS [4] = assay: as above
Vero E6 [5] = assay: as above
Caco-2 [6] = assay: relative viability EC50 (midpoint between 100% and the lowest measured viability); higher = less toxic
Calu-3 [7] = assay: as above
HepG2 [8] = assay: as above
U2OS [9] = assay: as above
Vero E6 [10] = assay: as above
Caco-2 [11] = assay: drug sensitivity score (DSS) for viability; higher = more toxic; extreme values may be limits of the assay
Calu-3 [12] = assay: as above
HepG2 [13] = assay: as above
U2OS [14] = assay: as above
Vero E6 [15] = assay: as above

| SMILES | cell viability (Caco-2 [1]; 1 nM) | cell viability (Caco-2 [1]; 10 nM) | cell viability (Caco-2 [1]; 100 nM) | cell viability (Caco-2 [1]; 1000 nM) | cell viability (Caco-2 [1]; 10000 nM) | cell viability (Calu-3 [2]; 1 nM) | cell viability (Calu-3 [2]; 10 nM) | cell viability (Calu-3 [2]; 100 nM) | cell viability (Calu-3 [2]; 1000 nM) | cell viability (Calu-3 [2]; 10000 nM) | cell viability (HepG2 [3]; 1 nM) | cell viability (HepG2 [3]; 10 nM) | cell viability (HepG2 [3]; 100 nM) | cell viability (HepG2 [3]; 1000 nM) | cell viability (HepG2 [3]; 10000 nM) | cell viability (U2OS [4]; 1 nM) | cell viability (U2OS [4]; 10 nM) | cell viability (U2OS [4]; 100 nM) | cell viability (U2OS [4]; 1000 nM) | cell viability (U2OS [4]; 10000 nM) | cell viability (Vero E6 [5]; 1 nM) | cell viability (Vero E6 [5]; 10 nM) | cell viability (Vero E6 [5]; 100 nM) | cell viability (Vero E6 [5]; 1000 nM) | cell viability (Vero E6 [5]; 10000 nM) | relative viability EC50 (Caco-2 [6]) | relative viability EC50 (Calu-3 [7]) | relative viability EC50 (HepG2 [8]) | relative viability EC50 (U2OS [9]) | relative viability EC50 (Vero E6 [10]) | drug sensitivity score (Caco-2 [11]) | drug sensitivity score (Calu-3 [12]) | drug sensitivity score (HepG2 [13]) | drug sensitivity score (U2OS [14]) | drug sensitivity score (Vero E6 [15]) |
| --- | --- | --- | --- | --- | --- | --- | --- | --- | --- | --- | --- | --- | --- | --- | --- | --- | --- | --- | --- | --- | --- | --- | --- | --- | --- | --- | --- | --- | --- | --- | --- | --- | --- | --- | --- |
| CCCC(=O)Nc1cccc(NC(=O)c2ccccc2Br)c1 [ML161] | 93.6% | 95.5% | 89.6% | 96.6% | 94% | 95.4% | 101% | 89.2% | 101% | 105% | 91.6% | 98% | 94.9% | 94.2% | 103% | 95.3% | 97.7% | 95.8% | 98.8% | 94.2% | 100% | 96.1% | 103% | 98.9% | 97.7% | > 10 µM | > 10 µM | > 10 µM | > 10 µM | > 10 µM | 0 | 0 | 0 | 0 | 0 |
| CC(=O)N[C@H]1[C@@H](O)[C@H](O)[C@@H](CO)O[C@@H]1O [N-acetylmannosamine] | 102% | 99.6% | 100% | 107% | 104% | 106% | 100% | 94.7% | 102% | 111% | 108% | 96.7% | 110% | 105% | 100% | 95.6% | 101% | 105% | 103% | 105% | 97% | 95.9% | 92.1% | 92.8% | 108% | > 10 µM | > 10 µM | > 10 µM | > 10 µM | > 10 µM | 0 | 0 | 0 | 0 | 0 |
| O[C@@H](C[C@H]1c2ccccc2-c2cncn21)C1CCCCC1 [NLG919] | 97.6% | 97% | 102% | 95.8% | 86.3% | 106% | 111% | 92.7% | 105% | 85.6% | 108% | 95.9% | 102% | 93.5% | 94.1% | 93.1% | 93% | 94% | 96.7% | 90.7% | 97.3% | 98.5% | 93.3% | 89.8% | 84.2% | > 10 µM | > 10 µM | > 10 µM | > 10 µM | > 10 µM | 0.4 | 0.1 | 0 | 0 | 0.7 |
| CC(C)[C@H]1c2ccc(F)cc2CC[C@@]1(CCN(C)CCCc1nc2ccccc2[nH]1)OC(=O)C1CC1 [NNC-55-0396] | 85.5% | 102% | 93.6% | 97.2% | 4.5% | 106% | 105% | 100% | 99.7% | 2.2% | 109% | 104% | 98.7% | 96.8% | 0% | 98.9% | 99.1% | 94.4% | 97.2% | 2.8% | 95.2% | 96.1% | 93.5% | 89.4% | -0.1% | 2.95 µM | 3.14 µM | 2.93 µM | 2.96 µM | 2.29 µM | 5.7 | 5.5 | 6 | 5.8 | 7.3 |
| COc1ccc(COc2ccc(CC#N)cc2)cc1 [O4I1] | 94.7% | 93.9% | 96.3% | 92.9% | 92.2% | 104% | 93.3% | 103% | 89.4% | 102% | 100% | 97% | 98.6% | 95.4% | 94.7% | 102% | 106% | 96.2% | 104% | 95.4% | 100% | 99.4% | 99.1% | 95% | 87.4% | > 10 µM | > 10 µM | > 10 µM | > 10 µM | > 10 µM | 0 | 0 | 0 | 0 | 0.2 |
| O=C(CCN1CCN(C(=O)OCc2cc(Cl)cc(Cl)c2)CC1)c1ccc2[nH]c(=O)oc2c1 [PF-8380] | 94.8% | 101% | 91.2% | 98.1% | 94.9% | 97.5% | 101% | 94.5% | 99.5% | 113% | 99.6% | 96.3% | 93.4% | 105% | 97.3% | 98.5% | 101% | 97.9% | 95.6% | 101% | 106% | 110% | 104% | 103% | 92.7% | > 10 µM | > 10 µM | > 10 µM | > 10 µM | > 10 µM | 0 | 0 | 0 | 0 | 0 |
| CC(C)OC(=O)[C@H](C)N[P@@](=O)(OC[C@H]1O[C@@H](n2ccc(=O)[nH]c2=O)[C@](C)(F)[C@@H]1O)Oc1ccccc1 [PSI-7976] | 105% | 88.7% | 103% | 90.2% | 101% | 104% | 85.4% | 96.7% | 93.3% | 94.2% | 89.5% | 103% | 92.6% | 109% | 113% | 98.2% | 93.6% | 101% | 99% | 96.8% | 95.2% | 101% | 91.4% | 99% | 108% | > 10 µM | > 10 µM | > 10 µM | > 10 µM | > 10 µM | 0 | 0 | 0 | 0 | 0 |
